Experimental findings from US6156700A, “3-(1,2-Benzisothiazol- and isoxazol-5-yl)-2,4(1H,3H)-pyrimidinedione or thione and 3-(1,2-benzisothiazol- and isoxazol-5-yl)-4(3H)-pyrimidinone or thione herbicidal agents” (American Cyanmid Company, priority 1998, dated 2000) are described below.

Experiment [1] has as its system Lambsquarters, Common, Chenopodium album. Put plainly: Postemergence herbicidal evaluation, CHEAL. It counts as in vivo, L. In a few lines:
(§1)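 Rates of about 0.0157–0.500 kg/ha were delivered through a 40 psi spray nozzle to seedlings grown around two weeks, using a 50/50 acetone/water vehicle with 0.5% TWEEN 20. A 0–9 visual score versus control followed 4–5 weeks later.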

Experiment [2] concerns ECHCG. Put plainly: Postemergence herbicidal evaluation. The class given is in vivo.
The test system of the next experiment is CASOB. Put plainly: Postemergence herbicidal evaluation. It counts as in vivo.
Experiment [3] concerns SETVI. Put plainly: Postemergence herbicidal evaluation. It counts as in vivo.
Experiment [4] relates to TRZAWR. The experiment is described as follows: Postemergence herbicidal evaluation. It counts as in vivo.
Experiment [5] relates to ECHCG. Put plainly: Preemergence herbicidal evaluation. The arrangement: scale not given here. It counts as in vivo.
Experiment [6] relates to CHEAL. Put plainly: Preemergence herbicidal evaluation. It counts as in vivo. The arrangement: scale not given here.
Experiment [7] deals with TRZAWR. Put plainly: Preemergence herbicidal evaluation. It counts as in vivo. Set-up: scale not given here.
The test system of the next experiment is GALAP. Put plainly: Preemergence herbicidal evaluation. The arrangement: scale not given here. The class given is in vivo.
The subject of the next experiment is IPOSS. Put plainly: Preemergence herbicidal evaluation. The class given is in vivo. The arrangement: scale not given here.
Experiment [8] deals with SETVI. The experiment is described as follows: Preemergence herbicidal evaluation. It counts as in vivo. Set-up: scale not given here.
Experiment [9] concerns CHEAL. The experiment is described as follows: Postemergence herbicidal evaluation. It counts as in vivo.
The test system of another experiment is ZEAMX. The experiment is described as follows: Postemergence herbicidal evaluation. It counts as in vivo.
The subject of a further experiment is Soybean, Glycine max. The experiment is described as follows: Preemergence herbicidal evaluation, GLXMA. It counts as in vivo, (L.) Merr. The note with it: 0.2500 kg/ha. From the text:
(§2) Results of herbicide evaluation are expressed on a rating scale (0-9). The scale is based upon a visual observation of plant stand, vigor, malformation, size, chlorosis and overall plant appearance as compared with a control.
(§3) The preemergence herbicidal activity of the test compounds of the present invention is exemplified by the following tests in which the seeds of a variety of monocotyledonous and dicotyledonous plants are separately mixed with potting soil and planted on top of approximately one inch of soil in separate pint cups. After planting, the cups are sprayed with the selected aqueous acetone solution containing test compound in sufficient quantity to provide the equivalent of about 0.0156 to 0.500 kg per hectare of test compound per cup. The treated cups are then placed on greenhouse benches, watered and cared for in accordance with conventional greenhouse procedures. From four to five weeks after treatment, the tests are terminated and each cup is examined and rated according to the rating system provided in Example 185.
(§4) The compounds evaluated are reported by compound number given in Example 185.

The subject of another experiment is GLXMA. Put plainly: Preemergence herbicidal evaluation. The class given is in vivo. The procedure:
The preemergence and postemergence herbicidal properties of certain compounds of the present invention are compared with certain compounds disclosed in U.S. Pat. Nos. 5,484,763 and 5,523,278. The evaluations are performed as described in Examples 185 and 186. Data in Tables V and VI are reported by the compound number given in Example 185 for the compounds of this invention or by comparative compound letter for the compounds disclosed in U.S. Pat. Nos. 5,484,763 and 5,523,278.

Another experiment concerns ABUTH. The experiment is described as follows: Postemergence herbicidal evaluation. The class given is in vivo.
Experiment [10] has as its system Soybean, Williams, Glycine max. Put plainly: Preemergence herbicidal evaluation, GLXMAW. The class given is in vivo, (L.) Merr. cv Williams. The settings on record: 0.2500 kg/ha.
Source text: as §2, §3, §4

Experiment [11] concerns Morningglory, Ivyleaf, Ipomoea hederacea. Put plainly: Preemergence herbicidal evaluation, IPOHE. It counts as in vivo, (L.) Jacq. The note with it: 0.2500 kg/ha.
Source text: as §2, §3, §4

Experiment [12] has the same test system. The experiment is described as follows: Postemergence herbicidal evaluation, IPOHE. The class given is in vivo, (L.) Jacq. The settings on record: 0.0630 kg/ha. In a few lines: as §1

Structures are written as SMILES.

Consider `Cc1cc(O)c(-c2nsc3ccc(-n4c(=O)cc(C(F)(F)F)n(C)c4=O)cc23)cc1C` [Compound 11, 3-[3-(6-Hydroxy-3,4-xylyl)-1,2-benzisothiazol-5-yl]-1-methyl-6-(trifluoromethyl)-2,4(1H,3H)-pyrimidinedione], for which, in experiment [1] (0.2500 kg/ha), the “herbicide rating (0-9)” value is 9.0.
For the molecule `Cn1c(C(F)(F)F)cc(=O)n(-c2ccc3snc(-c4ccccc4)c3c2)c1=O` [Compound 4, 1-Methyl-3-(3-phenyl-1,2-benzisothiazol-5-yl)-6-(trifluoromethyl)-2,4(1H,3H)-pyrimidinedione], the herbicidal effect rating is recorded as 2.0 with ECHCG [2] (0.0157-0.0160 kg/ha); 5.0 with ECHCG [2] (0.0313-0.0320 kg/ha); 7.0 with ECHCG [2] (0.0625-0.0640 kg/ha); 8.0 in the experiment on ECHCG [2] (0.1250 kg/ha); 8.0 in the experiment on ECHCG [2] (0.2500 kg/ha); 9.0 with ECHCG [2] (0.5000 kg/ha). Moreover, the herbicidal effect rating was 7.0 in the experiment on CASOB (0.0157-0.0160 kg/ha); 7.0 with CASOB (0.0313-0.0320 kg/ha); 9.0 with CASOB (0.0625-0.0640 kg/ha); 9.0 with CASOB (0.1250 kg/ha); 9.0 in the experiment with CASOB (0.2500 kg/ha); 9.0 with CASOB (0.5000 kg/ha). The herbicidal effect rating in the experiment with SETVI [3] (0.0157-0.0160 kg/ha) was 8.0; in the experiment on SETVI [3] (0.0313-0.0320 kg/ha) it was 9.0; in the experiment with SETVI [3] (0.0625-0.0640 kg/ha) it was 9.0; in the experiment with SETVI [3] (0.1250 kg/ha) it was 9.0; in the experiment on SETVI [3] (0.2500 kg/ha) it was 9.0; in the experiment with SETVI [3] (0.5000 kg/ha), 9.0. The herbicidal effect rating is 2.0 in the experiment with TRZAWR [4] (0.0157-0.0160 kg/ha); 2.0 in the experiment on TRZAWR [4] (0.0313-0.0320 kg/ha); 3.0 in the experiment on TRZAWR [4] (0.0625-0.0640 kg/ha); 3.0 with TRZAWR [4] (0.1250 kg/ha); 3.0 in the experiment on TRZAWR [4] (0.2500 kg/ha); 4.0 in the experiment with TRZAWR [4] (0.5000 kg/ha). The herbicidal effect rating with ECHCG [5] (0.0313-0.0320 kg/ha), in the experiment on ECHCG [5] (0.0620-0.0630 kg/ha), in the experiment on ECHCG [5] (0.1250 kg/ha), in the experiment with ECHCG [5] (0.2500 kg/ha), with ECHCG [5] (0.5000 kg/ha) and in the experiment with CHEAL [6] (0.0313-0.0320 kg/ha) was 9.0 throughout. Also, the herbicidal effect rating in the experiment with CHEAL [6] (0.0620-0.0630 kg/ha) is 9.0; in the experiment on CHEAL [6] (0.1250 kg/ha), 9.0; in the experiment with CHEAL [6] (0.2500 kg/ha) it was 9.0; with CHEAL [6] (0.5000 kg/ha), 9.0; in the experiment on TRZAWR [7] (0.0313-0.0320 kg/ha), 2.0; with TRZAWR [7] (0.0620-0.0630 kg/ha), 5.0. In addition, the herbicidal effect rating with TRZAWR [7] (0.1250 kg/ha) came out at 7.0; with TRZAWR [7] (0.2500 kg/ha), 7.0; in the experiment on TRZAWR [7] (0.5000 kg/ha), 7.0; with GALAP (0.0313-0.0320 kg/ha), 9.0; in the experiment on GALAP (0.0620-0.0630 kg/ha), 9.0; in the experiment on GALAP (0.1250 kg/ha), 6.0. The herbicidal effect rating in the experiment on GALAP (0.2500 kg/ha) is reported as 9.0; in the experiment with GALAP (0.5000 kg/ha) it was 9.0; with IPOSS (0.0313-0.0320 kg/ha), 2.0; with IPOSS (0.0620-0.0630 kg/ha), 4.0; in the experiment on IPOSS (0.1250 kg/ha), 7.0; in the experiment with IPOSS (0.2500 kg/ha) it was 9.0. In addition, the herbicidal effect rating in the experiment on IPOSS (0.5000 kg/ha), in the experiment with SETVI [8] (0.0313-0.0320 kg/ha), in the experiment with SETVI [8] (0.0620-0.0630 kg/ha), in the experiment on SETVI [8] (0.1250 kg/ha), with SETVI [8] (0.2500 kg/ha) and in the experiment on SETVI [8] (0.5000 kg/ha) was 9.0 throughout. Besides, the herbicidal effect rating in the experiment with CHEAL [9] (0.0157-0.0160 kg/ha), in the experiment on CHEAL [9] (0.0313-0.0320 kg/ha), in the experiment with CHEAL [9] (0.0625-0.0640 kg/ha), in the experiment on CHEAL [9] (0.1250 kg/ha), in the experiment on CHEAL [9] (0.2500 kg/ha) and with CHEAL [9] (0.5000 kg/ha) was 9.0 in each case. The herbicidal effect rating is 2.0 in the experiment with ZEAMX (0.0157-0.0160 kg/ha); 2.0 in the experiment on ZEAMX (0.0313-0.0320 kg/ha); 3.0 in the experiment on ZEAMX (0.0625-0.0640 kg/ha); 3.0 with ZEAMX (0.1250 kg/ha); 3.0 with ZEAMX (0.2500 kg/ha); 3.0 in the experiment on ZEAMX (0.5000 kg/ha). The herbicidal effect rating is 3.0 with GLXMA (0.0313-0.0320 kg/ha); 9.0 in the experiment on GLXMA (0.0620-0.0630 kg/ha); 9.0 in the experiment on GLXMA (0.1250 kg/ha); 7.0 in the experiment on GLXMA (0.2500 kg/ha); 9.0 in the experiment on GLXMA (0.5000 kg/ha); 9.0 with ABUTH (0.0157-0.0160 kg/ha). The herbicidal effect rating in the experiment with ABUTH (0.0313-0.0320 kg/ha), with ABUTH (0.0625-0.0640 kg/ha), with ABUTH (0.1250 kg/ha), in the experiment on ABUTH (0.2500 kg/ha) and in the experiment on ABUTH (0.5000 kg/ha) was 9.0 each time. Moreover, the “herbicide rating (0-9)” value was found to be 9.0 in experiment [1] (0.2500 kg/ha) and 7.0 in the experiment with Soybean, Glycine max.
As to `COC(=O)C(C)Oc1cc(C)c(C)cc1-c1nsc2ccc(-n3c(=O)cc(C(F)(F)F)n(C)c3=O)cc12` (stereo not shown) [Compound 13, Methyl 2-{{6-{5-[3,6-dihydro-3-methyl-4-(trifluoromethyl)-2,6-dioxo-1(2H)-pyrimidinyl]-1,2-benzisothiazol-3-yl}-3,4-xylyl}oxy}propionate], the “herbicide rating (0-9)” value in [1] (0.2500 kg/ha) is 9.0.
Consider `CCc1ccc(-c2nsc3ccc(-n4c(=O)cc(C(F)(F)F)n(C)c4=O)cc23)cc1` [Compound 5, 3-[3-(p-Ethylphenyl)-1,2-benzisothiazol-5-yl]-1-methyl-6-(trifluoromethyl)-2,4 (1H,3H)-pyrimidinedione], for which the “herbicide rating (0-9)” value in experiment [1] (0.2500 kg/ha) was 9.0; with Soybean, Glycine max, 4.0.
`COC(=O)COc1cc(C)c(C)cc1-c1nsc2ccc(-n3c(=O)cc(C(F)(F)F)n(C)c3=O)cc12` [Compound 12, Methyl {{6-{5-[3,6-dihydro-3-methyl-4-(trifluoromethyl)-2,6-dioxo-1(2H)-pyrimidinyl]-1,2-benzisothiazol-3-yl}-3,4-xylyl}oxy}acetate]: the “herbicide rating (0-9)” value in experiment [1] (0.2500 kg/ha) turned out to be 9.0.
On the same count and under the same terms, next, `COc1cc(C)ccc1-c1nsc2ccc(-n3c(=O)cc(C(F)(F)F)n(C)c3=O)cc12` [Compound 7, 3-[3-(2-Methoxy-p-tolyl)-1,2-benzisothiazol-5-yl]-1-methyl-6-(trifluoromethyl)-2,4(1H,3H)-pyrimidinedione]: 9.0.
As for `COC(=O)COc1cc(C)ccc1-c1nsc2ccc(-n3c(=O)cc(C(F)(F)F)n(C)c3=O)cc12` [Compound 8, Methyl {{6-{5-[3,6-dihydro-3-methyl-4-(trifluoromethyl)-2,6-dioxo-1(2H)-pyrimidinyl]-1,2-benzisothiazol-3-yl}-m-tolyl}oxy}acetate], the “herbicide rating (0-9)” value in [1] (0.2500 kg/ha) was 9.0.
As for `COc1ccc(C)cc1-c1nsc2ccc(-n3c(=O)cc(C(F)(F)F)n(C)c3=O)cc12` [Compound 1, 3-[3-(6-Methoxy-m-tolyl)-1,2-benzisothiazol-5-yl]-1-methyl-6-(trifluoromethyl)-2,4(1H,3H)-pyrimidinedione], the “herbicide rating (0-9)” value in experiment [10] was determined as 7.5; in experiment [11], 8.0; in experiment [12] it was 9.0; in experiment [1] (0.0630 kg/ha) it was 9.0; in experiment [1] (0.2500 kg/ha) it was 9.0.
